Source: the NIST ThermoML archive (doi:10.1016/j.tca.2008.12.029)

Test: molar heat capacity at constant pressure
Settings: 101.33 kPa, Crystal, Vacuum adiabatic calorimetry

O=C([O-])c1ccccc1.[Na+] [sodium benzoate]
Settings | molar heat capacity at constant pressure [J/K/mol]
78.86 K | 74.66
80.43 K | 75.06
82.62 K | 76.58
84.79 K | 77.94
87.06 K | 79
89.08 K | 80.34
91.16 K | 81.6
93.24 K | 82.94
95.32 K | 83.73
97.26 K | 84.83
99.2 K | 86.09
101.14 K | 87.27
103.01 K | 88.2
104.89 K | 89.11
106.3 K | 89.81
107.72 K | 90.52
109.44 K | 91.63
111.32 K | 92.54
113.05 K | 93.55
114.93 K | 94.67
116.5 K | 95.37
118.38 K | 95.98
120.05 K | 97.43
122.61 K | 98.9
126.31 K | 100.57
129.87 K | 102.54
133.42 K | 104.11
137.05 K | 105.58
140.25 K | 107.64
143.52 K | 109.31
146.93 K | 111.38
150.2 K | 112.85
153.61 K | 114.42
156.74 K | 115.8
159.94 K | 117.1
163.08 K | 118.62
166.41 K | 120.71
169.54 K | 122.29
172.67 K | 124.15
175.8 K | 125.53
178.78 K | 127.2
182.05 K | 128.48
186.18 K | 130.74
190.73 K | 133.09
194.71 K | 134.96
198.69 K | 136.73
202.67 K | 138.89
206.65 K | 140.95
210.78 K | 143.02
214.62 K | 144.69
218.6 K | 147.24
222.72 K | 148.91
226.56 K | 150.78
230.54 K | 152.55
234.67 K | 154.3
238.65 K | 156.48
242.63 K | 158.35
247.75 K | 160.9
252.79 K | 162.99
256.71 K | 164.6
260.69 K | 166.7
264.71 K | 168.34
268.8 K | 170.63
272.92 K | 172.89
276.9 K | 174.76
280.74 K | 176.43
284.72 K | 178.39
288.7 K | 179.87
292.69 K | 181.54
295.1 K | 182.91
298.37 K | 184.58
301.36 K | 185.56
304.35 K | 186.94
307.33 K | 188.32
310.32 K | 189.49
313.3 K | 190.87
316.29 K | 191.75
319.28 K | 192.93
322.12 K | 194.21
325.11 K | 195.49
327.81 K | 196.77
329.51 K | 197.36
332.93 K | 198.63
335.35 K | 199.91
338.05 K | 200.79
340.89 K | 202.17
343.88 K | 202.96
346.72 K | 204.33
349.42 K | 205.02
352.27 K | 206.2
355.25 K | 207.28
358.1 K | 208.56
360.85 K | 209.38
363.79 K | 210.82
366.63 K | 212.19
369.62 K | 213.57
372.46 K | 214.53
375.3 K | 215.93
378.15 K | 217.2
380.99 K | 218.09
383.98 K | 219.66
386.68 K | 220.45
389.52 K | 221.82
392.37 K | 223.2
395.21 K | 224.18
397.91 K | 225.75
